According to article PMC7908975, “Antioxidant and Anti-Inflammatory Activity of Citrus Flavanones Mix and Its Stability after In Vitro Simulated Digestion” (Antioxidants, 2021):

What was measured:
trypsin = experiment: Anti-protease activity (APA), anti-tryptic activity; assay type: biochemical
Procedure: The anti-tryptic activity of sample was evaluated according to Smeriglio et al.. Briefly, 200 µL of each flavanone (6.25–140 µM) or diclofenac sodium as reference compound (10–80 µM) were added to 12 µL of trypsin (10 µg/mL) and 188 µL of 25 mM Tris-HCl buffer (pH 7.5). After that, 200 µL of 0.8% casein solution were added and samples incubated for 20 min at 37 °C in a water bath. After that, 400 µL of perchloric acid were added to stop the reaction. The cloudy suspension, due to the protein precipitation, was centrifuged at 3500× g for 10 min and the absorbance of the supernatant was recorded at 280 nm against a blank consisting of deionized water instead of sample. Based on the results of the preliminary antioxidant and anti-inflammatory screening (see Section 2.2), the most powerful flavanones (neohesperidin, hesperidin, neoeriocitrin, eriocitrin, and hesperetin) were selected in order to prepare a flavanones mix (FM), which was, at first instance, investigated by the same in vitro colorimetric assays (see Section 2.2) in order to evaluate its potency with respect to the single flavanones and to elucidate potential synergistic mechanisms. The following final concentration range of FM were used: FRAP (2.50–20 µM), ORAC (0.08–0.60 µM), TEAC (0.31–2.50 µM), DPPH (1.25–10 µM), ADA (5.0–40 µM), and APA (2.50–20 µM). […]

[1] = In vitro simulated human gastric and duodenal digestion with LC-DAD-ESI-MS/MS quantification; assay type: in vitro ADME; conditions: with respect to starting FM 10 µM
Source text: Based on the results of the preliminary antioxidant and anti-inflammatory screening (see Section 2.2), the most powerful flavanones (neohesperidin, hesperidin, neoeriocitrin, eriocitrin, and hesperetin) were selected in order to prepare a flavanones mix (FM), which was, at first instance, investigated by the same in vitro colorimetric assays (see Section 2.2) in order to evaluate its potency with respect to the single flavanones and to elucidate potential synergistic mechanisms. The following final concentration range of FM were used: FRAP (2.50–20 µM), ORAC (0.08–0.60 µM), TEAC (0.31–2.50 µM), DPPH (1.25–10 µM), ADA (5.0–40 µM), and APA (2.50–20 µM). After that, being the results of the preliminary antioxidant and anti-inflammatory screening of FM very promising, an appropriate concentration was chosen to proceed with the subsequent analyses. In particular, the FM was prepared on the assumption that digested sample, which would then be applied to the Caco-2 cells for the anti-inflammatory experiments, had to contain an equimolar concentration of the five most powerful flavanones (neohesperidin, hesperidin, neoeriocitrin, eriocitrin, and hesperetin) equal to 10 µM, which represents the mean efficacy concentration taking into account the IC50 values obtained in the preliminary antioxidant and anti-inflammatory screening of the FM. At this purpose, stock solutions (14 mM) of flavanones in DMSO were mixed and diluted 10-fold with Milli-Q water to obtain the 1.4 mM FM, which was used to carried out the in vitro simulated human digestion. In vitro gastric and duodenal digestion of FM was carried out according to Trombetta et al. with some modifications. FM solution (1.5 mL) (see Section 2.3), has been dissolved in 7.5 mL of simulated gastric solution containing 0.127 mM egg-phosphatidylcholine and adjusting the pH to 2.5, by 1 M HCl. Gastric pepsin and lipase (9000 U/mL and 60 U/mL, respectively) were added to the mixture starting the gastric digestion phase, which was protracted for 2 h at 37 °C, incubating under continuous stirring (170 rpm) by an Innova 4000 Benchtop Incubator Shaker (New Brunswick Scientific, Edison, NJ, USA). The gastric phase was stopped by the addition of 1M NaOH in order to reach a pH of 7.5, and 6 mL of the previous solution passed to the duodenal digestion phase. Duodenal solution was prepared by adding 2.10 mL of simulated bile solution (6.5 mM phosphatidylcholine, 4 mM cholesterol, 12.5 mM sodium taurocholate, and 12.5 mM sodium glycodeoxycholate) to 5.9 mL of simulated pancreatic juice containing pancreatic lipase (590 U/mL), colipase (3.2 µg/mL), trypsin (11 U/mL), α-chymotrypsin (24 U/mL), and α-amylase (300 U/mL). The duodenal mixture was incubated for 4 h under continuous stirring at 37 °C as described above. At the end, both gastric and duodenal digesta were immediately stored at −80 °C until the subsequent analyses. For quali-quantitative determination of flavanones, gastric and duodenal digesta were extracted with methanol (1:2, v/v) by mixing for 3 min. After that, samples were centrifuged at 12,000× g for 10 min, filtered by a 0.22 µm nylon syringe filter and injected into a liquid chromatograph equipped with a diode-array detector and mass spectrophotometer (LC-DAD-MS system, Agilent technologies, Santa Clara, CA, USA). The chromatographic separation was obtained using a reverse phase column Luna Omega PS C18 (150 × 2.1 mm, 5 µm; Phenomenex, Torrance, CA, USA) by using solvent A (formic acid 0.1% v/v) and solvent B (acetonitrile) as mobile phase according to the following elution gradient: 0 min, 0% B; 3–9 min, 3% B; 9–24 min, 12% B; 24–30 min, 20% B; 30–33 min, 33–43 30% B; 43–66 min 50% di B; 66–81 min 60% di B; 81–86 min 0% di B; 86–90 min 0% di B. […] UV–Vis spectra of flavanones were recorded (190–400 nm) and chromatograms were acquired at 292 nm, maximum flavanones absorption wavelength. […]

[2] = parameters: method as in PMID 19728713; conditions: as compounds of a bitter orange extract; cited from earlier work
[3] = Trolox Equivalent Antioxidant Capacity (TEAC) assay
Procedure: TEAC assay was carried out according to Bazzicalupo et al.. […] Fifty microliters of each flavanone (2.0–64 µM) or trolox as reference compound (2.50–20 µM) were added to 1 mL of the TEAC reagent and incubated at RT in the dark for 6 min. The absorbance was recorded at 734 nm. Based on the results of the preliminary antioxidant and anti-inflammatory screening (see Section 2.2), the most powerful flavanones (neohesperidin, hesperidin, neoeriocitrin, eriocitrin, and hesperetin) were selected in order to prepare a flavanones mix (FM), which was, at first instance, investigated by the same in vitro colorimetric assays (see Section 2.2) in order to evaluate its potency with respect to the single flavanones and to elucidate potential synergistic mechanisms. The following final concentration range of FM were used: FRAP (2.50–20 µM), ORAC (0.08–0.60 µM), TEAC (0.31–2.50 µM), DPPH (1.25–10 µM), ADA (5.0–40 µM), and APA (2.50–20 µM). After that, being the results of the preliminary antioxidant and anti-inflammatory screening of FM very promising, an appropriate concentration was chosen to proceed with the subsequent analyses. […]

COc1ccc(C2CC(=O)c3c(O)cc(O)cc3O2)cc1O (centres unmarked) [Hesperetin, 3′,5,7-trihydroxy-4′-methoxyflavanone]
anti-inflammatory activity less than the other tested molecules, protease inhibition (trypsin): about 4 times | DFM (µM): flavanone in duodenal digested flavanones mix ([1]; after gastric 2 h plus duodenal 4 h digestion, 37 °C): 8.76 ± 0.22 µM | GFM (µM): flavanone in gastric digested flavanones mix ([1]; after gastric digestion 2 h, pH 2.5, 37 °C): 9.38 ± 0.18 µM | stability after simulated in vitro digestion [2]: stable after simulated in vitro digestion | IC50 in comparison with reference standard trolox, TEAC [3]: a behavior comparable with the reference standard
